In ChEMBL document CHEMBL1201862, “PubChem BioAssay data set” (2004):
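Values below derive from 48-hour exposures of cells grown in 96-well plates, with endpoints linearly interpolated between the two concentrations bracketing the appropriate inhibition level. GI50 marks 50% less growth.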 The source made the active and inactive calls. Rule as the data show it: active = GI50 up to about 1.1 µM and inactive = higher.

What was measured:
Assay in all cases: growth of human tumour cells (NCI), 48 h
HCT-15 = tested on: HCT-15
OVCAR-3 = tested on: OVCAR-3
HCC 2998 = tested on: HCC 2998
SN12C = tested on: SN12C
U-251 = tested on: U-251
SNB-75 = tested on: SNB-75
NCI-H226 = tested on: NCI-H226
SK-MEL-28 = tested on: SK-MEL-28
SK-MEL-5 = tested on: SK-MEL-5
HOP-92 = tested on: HOP-92
A498 = tested on: A498
CAKI-1 = tested on: CAKI-1
RPMI-8226 = tested on: RPMI-8226
LOX IMVI = tested on: LOX IMVI
K562 = tested on: K562
HT-29 = tested on: HT-29
RXF 393 = tested on: RXF 393

Measured: GI50

CC(C)(C)C(=O)OCC1CCC(n2cnc3c(=O)[nH]c(N)nc32)O1 (stereo unspecified)
inactive: OVCAR-3 > 100 µM | HCC 2998 > 100 µM | SN12C > 100 µM | U-251 > 100 µM | SNB-75 40 µM | NCI-H226 > 100 µM | SK-MEL-28 > 100 µM | SK-MEL-5 > 100 µM | HOP-92 > 100 µM | A498 > 100 µM | CAKI-1 > 100 µM | RPMI-8226 > 100 µM | LOX IMVI > 100 µM | K562 > 100 µM | HT-29 > 100 µM
> 100 µM: HCT-15

O=C(c1ccccc1)c1c(CC(O)c2ccncc2)n(C(=O)c2ccccc2)c2ccccc12 (stereo unspecified)
17.4 µM: HCT-15
inactive: OVCAR-3 14 µM | HCC 2998 17.1 µM | U-251 17.7 µM | SNB-75 7.83 µM | NCI-H226 14.7 µM | SK-MEL-28 17.7 µM | SK-MEL-5 16.1 µM | HOP-92 15 µM | CAKI-1 22.3 µM | RPMI-8226 19.6 µM | K562 > 10 µM | HT-29 17.3 µM

CN(C(=O)c1ccco1)C(=S)N1CCN(c2ccccn2)CC1
> 100 µM: HCT-15
inactive: OVCAR-3 > 100 µM | SN12C > 100 µM | U-251 > 100 µM | SNB-75 > 100 µM | NCI-H226 > 100 µM | SK-MEL-28 > 100 µM | SK-MEL-5 > 100 µM | HOP-92 > 100 µM | RXF 393 > 100 µM | CAKI-1 > 100 µM | RPMI-8226 > 100 µM | LOX IMVI > 100 µM | K562 > 100 µM | HT-29 > 100 µM

COc1ccc(Sc2ccccc2[N+](=O)[O-])cc1
5.86 µM: HCT-15
inactive: OVCAR-3 12.4 µM | HCC 2998 8.36 µM | SN12C 21.2 µM | U-251 10.4 µM | SNB-75 3.67 µM | NCI-H226 13 µM | SK-MEL-28 5.28 µM | SK-MEL-5 45.9 µM | HOP-92 18.7 µM | A498 50.7 µM | RXF 393 10.2 µM | RPMI-8226 25.5 µM | LOX IMVI 12.9 µM | K562 3.32 µM | HT-29 4.62 µM

CC1=C2N3C[C@@H](n4c(=O)n(C)c(=O)n43)C23CCC1n1c(=O)n(C)c(=O)n13
24.7 µM: HCT-15
inactive: HCC 2998 7.85 µM | SN12C > 100 µM | SNB-75 > 100 µM | NCI-H226 > 100 µM | SK-MEL-28 > 100 µM | SK-MEL-5 > 100 µM | A498 > 100 µM | CAKI-1 > 100 µM | RPMI-8226 42.7 µM | LOX IMVI 52.8 µM | K562 61 µM | HT-29 > 100 µM

O=C1CCCC/C1=C\c1ccc(Cl)c(Cl)c1
inactive: HCC 2998 21.7 µM | SN12C 16.6 µM | U-251 16.6 µM | SNB-75 16.3 µM | SK-MEL-28 19.1 µM | SK-MEL-5 17.2 µM | A498 58.5 µM | CAKI-1 19.2 µM | LOX IMVI 18 µM | K562 18.9 µM | HT-29 22.3 µM
19.1 µM: HCT-15

CC1=C(Cl)C=CP(=O)(Oc2ccccc2)C1 (stereo unspecified)
74.3 µM: HCT-15
inactive: OVCAR-3 > 100 µM | HCC 2998 > 100 µM | U-251 > 100 µM | SK-MEL-28 26.4 µM | SK-MEL-5 55.6 µM | HOP-92 > 100 µM | CAKI-1 > 100 µM | LOX IMVI 33 µM | K562 > 10 µM

CN1Cc2ccccc2C2(COc3ccccc3C2=O)C1 (stereo unspecified)
> 100 µM: HCT-15
inactive: OVCAR-3 77.8 µM | HCC 2998 > 100 µM | SN12C > 100 µM | U-251 > 100 µM | SNB-75 > 100 µM | NCI-H226 35.7 µM | SK-MEL-5 56.2 µM | HOP-92 20 µM | RXF 393 > 100 µM | CAKI-1 > 100 µM | RPMI-8226 68.7 µM | LOX IMVI > 100 µM | K562 75.2 µM | HT-29 48 µM

CCCCN(CCCC)C(=O)C(=O)C(C(=O)c1ccc(OC)cc1)c1ccc(OC)cc1 (stereo unspecified)
inactive: OVCAR-3 > 100 µM | HCC 2998 > 100 µM | SN12C > 100 µM | U-251 > 100 µM | NCI-H226 > 100 µM | SK-MEL-28 > 100 µM | SK-MEL-5 69 µM | HOP-92 27.4 µM | RXF 393 35.5 µM | CAKI-1 > 100 µM | LOX IMVI > 100 µM | K562 > 100 µM | HT-29 > 100 µM
> 100 µM: HCT-15

COc1ccc(C(c2ccccc2)(c2ccc(OC)cc2)N2C(=O)NC3C(CCCCC(=O)NCCCCCCOP(OCCC#N)N(C(C)C)C(C)C)SCC32)cc1 (stereo unspecified)
18 µM: HCT-15
inactive: OVCAR-3 14.8 µM | HCC 2998 16.6 µM | U-251 15 µM | NCI-H226 15 µM | SK-MEL-28 15 µM | SK-MEL-5 15.3 µM | HOP-92 19.5 µM | A498 17.2 µM | RXF 393 11.7 µM | RPMI-8226 8.34 µM | LOX IMVI 11.8 µM | K562 7.62 µM | HT-29 14.6 µM

O=C(CC(=O)N1N=C(c2ccccc2)C(/N=N/c2ccccc2Cl)C1=O)Nc1ccccc1Cl (stereo unspecified)
inactive: OVCAR-3 28.1 µM | HCC 2998 > 100 µM | SN12C 58.5 µM | U-251 32.1 µM | SNB-75 21.1 µM | NCI-H226 42.7 µM | SK-MEL-28 44.3 µM | SK-MEL-5 17.1 µM | A498 > 10 µM | CAKI-1 30.8 µM | RPMI-8226 17.3 µM | LOX IMVI 31.3 µM | K562 31.1 µM | HT-29 19.9 µM
40.1 µM: HCT-15

N=C(NC(=N)Nc1ccc(S(=O)(=O)Nc2cnc3ccccc3n2)cc1)Nc1ccc(Br)cc1
> 100 µM: HCT-15
inactive: OVCAR-3 > 100 µM | HCC 2998 > 100 µM | SN12C > 100 µM | U-251 > 100 µM | SNB-75 40.6 µM | NCI-H226 > 100 µM | SK-MEL-28 > 100 µM | SK-MEL-5 > 100 µM | HOP-92 > 100 µM | A498 > 100 µM | CAKI-1 > 100 µM | RPMI-8226 > 100 µM | LOX IMVI > 100 µM | K562 > 100 µM | HT-29 > 100 µM

C/C(=N\NC(=O)C[N+](C)(C)C)c1sc(-c2cccnc2)nc1C
inactive: OVCAR-3 > 100 µM | HCC 2998 > 100 µM | U-251 > 100 µM | SNB-75 > 100 µM | NCI-H226 > 100 µM | SK-MEL-28 > 100 µM | SK-MEL-5 > 100 µM | HOP-92 24.9 µM | RXF 393 52.1 µM | RPMI-8226 > 100 µM | LOX IMVI > 100 µM | K562 > 100 µM | HT-29 > 100 µM

NC(=O)c1ncn(Cc2ccccc2)c1CNC(N)=S
inactive: OVCAR-3 > 100 µM | HCC 2998 > 100 µM | SN12C > 100 µM | U-251 > 100 µM | SNB-75 91.4 µM | NCI-H226 > 100 µM | SK-MEL-28 > 100 µM | SK-MEL-5 > 100 µM | RXF 393 > 100 µM | RPMI-8226 > 100 µM | LOX IMVI > 100 µM | K562 > 100 µM | HT-29 > 100 µM
> 100 µM: HCT-15
